Assay results: ChEMBL document CHEMBL5143732 (J Med Chem, 2022); call rule not given here
Values after ≈ are worked out from the molar mass of the structure shown.

How the values were obtained:
Pichia kudriavzevii [1] = assay: Antifungal activity against Candida krusei assessed as inhibition of fungal growth measured after 48 hrs by CLSI based agar dilution method; assay type: functional
[2] = Aqueous solubility of compound at pH 6.8; assay type: physicochemical; settings: buffer
Candida parapsilosis [3] = assay: Antifungal activity against Candida parapsilosis assessed as inhibition of fungal growth measured after 48 hrs by CLSI based agar dilution method; assay type: functional; settings: Lodderomyces parapsilosis
[4] = Acute toxicity in SPF ICR mouse assessed as polypnea upto 7.5 mg/kg, iv administered on day 1 and measured for 14 days; assay type: organism-based; settings: in vivo, 336 h, time 14 day
Candida albicans [5] = assay: Potency index, ratio of AMD MIC to test compound MIC for antifungal activity against Candida albicans; assay type: functional
Cryptococcus neoformans [6] = assay: Antifungal activity against Cryptococcus neoformans ATCC 32609 assessed as inhibition of fungal growth measured after 48 hrs by CLSI based agar dilution method; assay type: functional
Nakaseomyces glabratus = assay: Potency index, ratio of AMD MIC to test compound MIC for antifungal activity against Candida glabrata; assay type: functional
[7] = Observed AUC infinity in ICR (CD-1) mouse at 1 mg/kg, iv measured upto 24 hrs; assay type: ADME, organism-based; design: dose 1 mg/kg, time < 24 hrs, route iv; settings: ICR (CD-1), in vivo
Pichia kudriavzevii [8] = assay: Potency index, ratio of AMD MIC to test compound MIC for antifungal activity against Candida krusei; assay type: functional
Candida albicans [9] = assay: Antifungal activity against Candida albicans ATTCC 14053 infected in SPF Kunming mouse assessed as increase in mouse survival pre-infected for 1 hr followed by compound addition and measured after 7 to 14 days; assay type: functional; settings: time 7-14 day
[10] = Observed MRT infinity in ICR (CD-1) mouse at 1 mg/kg, iv measured upto 24 hrs; assay type: ADME, organism-based; settings: in vivo
Candida albicans [11] = assay: Antifungal activity against Candida albicans assessed as inhibition of fungal growth measured after 48 hrs by CLSI based agar dilution method; assay type: functional
Candida tropicalis [12] = assay: Antifungal activity against Candida tropicalis assessed as inhibition of fungal growth measured after 48 hrs by CLSI based agar dilution method; assay type: functional
[13] = Acute toxicity in iv dosed SPF ICR mouse assessed as maximum tolerated measured for 14 days; assay type: organism-based; settings: in vivo, dose 30 mg/kg, time 14 day
[14] = Acute toxicity in SPF ICR mouse assessed as polypnea at 15 to 30 mg/kg, iv administered on day 1 and measured for 14 days; assay type: organism-based; settings: in vivo, 336 h, dose 15-30 mg/kg, time 14 day
[15] = Acute toxicity in SPF ICR mouse assessed as prostration at 15 to 30 mg/kg, iv administered on day 1 and measured for 14 days; assay type: organism-based; settings: in vivo, 336 h, dose 15-30 mg/kg, time 14 day
[16] = Therapeutic index ratio of MTD for acute toxicity in iv dosed SPF ICR mouse to ED50 for antifungal activity against Candida albicans ATTCC 14053 infected in SPF kunming mouse; assay type: organism-based; settings: in vivo, read-out: TI
Candida tropicalis [17] = assay: Potency index, ratio of AMD MIC to test compound MIC for antifungal activity against Candida tropicalis; assay type: functional
[18] = Observed volume of distribution at steady state in ICR (CD-1) mouse at 1 mg/kg, iv measured upto 24 hrs; assay type: ADME, organism-based; settings: in vivo, read-out: Vdss
[19] = Hemolytic activity in human RBC measured after 1 hr; assay type: toxicity, cell-based, Erythrocyte; settings: red blood cells (erythrocytes)
Cryptococcus neoformans [20] = assay: Potency index, ratio of AMD MIC to test compound MIC for antifungal activity against Cryptococcus neoformans; assay type: functional
[21] = Observed clearance in ICR (CD-1) mouse at 1 mg/kg, iv measured upto 24 hrs; assay type: ADME, organism-based; design: dose 1 mg/kg, time < 24 hrs, route iv; settings: in vivo, route iv, dose 1 mg/kg, time < 24 hrs, read-out: CL
Candida parapsilosis [22] = assay: Potency index, ratio of AMD MIC to test compound MIC for antifungal activity against Candida parapsilosis; assay type: functional
[23] = AUClast in ICR (CD-1) mouse at 1 mg/kg, iv measured upto 24 hrs; assay type: ADME, organism-based; design: dose 1 mg/kg, time < 24 hrs, route iv; settings: ICR (CD-1), in vivo
[24] = Elimination half life in ICR (CD-1) mouse at 1 mg/kg, iv measured upto 24 hrs; assay type: ADME, organism-based; settings: in vivo, read-out: beta t1/2 (converted)
Pichia kudriavzevii [25] = assay: Antifungal activity against Candida krusei ATCC 6258 assessed as inhibition of fungal growth measured after 48 hrs by CLSI based agar dilution method; assay type: functional
[26] = Acute toxicity in SPF ICR mouse assessed as prostration upto 7.5 mg/kg, iv administered on day 1 and measured for 14 days; assay type: organism-based; settings: in vivo, 336 h, time 14 day
Cytochrome P450 1A2 = molecular target: T1, Cytochrome P450 1A2 (Homo sapiens, UniProt P05177); assay: Inhibition of CYP1A2 in human liver microsome using Phenacetin as substrate preincubated for 10 mins followed by NADPH addition and measured after 15 mins by LC-MS/MS analysis; assay type: ADME, microsomes
T1 sequence (P05177 whole entry): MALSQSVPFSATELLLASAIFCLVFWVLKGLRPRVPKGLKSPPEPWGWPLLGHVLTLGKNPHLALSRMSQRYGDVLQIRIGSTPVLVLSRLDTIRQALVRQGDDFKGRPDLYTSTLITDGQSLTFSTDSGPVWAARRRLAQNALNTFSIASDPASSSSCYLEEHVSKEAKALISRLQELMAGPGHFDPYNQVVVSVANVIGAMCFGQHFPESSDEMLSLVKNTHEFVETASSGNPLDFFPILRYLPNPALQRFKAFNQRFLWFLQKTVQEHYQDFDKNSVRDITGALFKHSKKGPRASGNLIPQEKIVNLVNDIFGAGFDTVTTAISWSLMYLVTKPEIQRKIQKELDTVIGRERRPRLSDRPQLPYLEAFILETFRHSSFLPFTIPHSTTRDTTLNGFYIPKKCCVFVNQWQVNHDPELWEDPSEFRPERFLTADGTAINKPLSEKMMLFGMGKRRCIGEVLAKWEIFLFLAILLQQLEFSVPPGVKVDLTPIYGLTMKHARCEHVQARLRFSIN

Cytochrome P450 2C9 = Cytochrome P450 2C9 (Homo sapiens, UniProt P11712); assay: Inhibition of CYP2C9 in human liver microsome using tolbutamide as substrate preincubated for 10 mins followed by NADPH addition and measured after 15 mins by LC-MS/MS analysis; assay type: ADME, microsomes
Cytochrome P450 3A4 = Cytochrome P450 3A4 (Homo sapiens, UniProt P08684); assay: Inhibition of CYP3A4 in human liver microsome using midazolam and testostrone as substrate preincubated for 10 mins followed by NADPH addition and measured after 15 mins by LC-MS/MS analysis; assay type: ADME, microsomes
Cytochrome P450 2D6 = Cytochrome P450 2D6 (Homo sapiens, UniProt P10635); assay: Inhibition of CYP2D6 in human liver microsome using dextromethorphan as substrate preincubated for 10 mins followed by NADPH addition and measured after 15 mins by LC-MS/MS analysis; assay type: ADME, microsomes
[27] = Aggregation property of the compound in PBS at 7.4 pH assessed as dimerization at 5.4 uM by UV/vis double-beam spectrometer analysis; assay type: physicochemical; settings: buffer, pH 7.4, 5.4 µM
[28] = molecular target: Voltage-gated inwardly rectifying potassium channel KCNH2 (Homo sapiens, UniProt Q12809); assay: Inhibition of hERG expressed in CHO cells at -80 mV holding potential by automated patch clamp method; assay type: toxicity, cell-based
Cytochrome P450 2C19 = Cytochrome P450 2C19 (Homo sapiens, UniProt P33261); assay: Inhibition of CYP2C19 in human liver microsome using mephenytoin as substrate preincubated for 10 mins followed by NADPH addition and measured after 15 mins by LC-MS/MS analysis; assay type: ADME, microsomes
Chain of Cytochrome P450 2C19 (P33261 whole entry): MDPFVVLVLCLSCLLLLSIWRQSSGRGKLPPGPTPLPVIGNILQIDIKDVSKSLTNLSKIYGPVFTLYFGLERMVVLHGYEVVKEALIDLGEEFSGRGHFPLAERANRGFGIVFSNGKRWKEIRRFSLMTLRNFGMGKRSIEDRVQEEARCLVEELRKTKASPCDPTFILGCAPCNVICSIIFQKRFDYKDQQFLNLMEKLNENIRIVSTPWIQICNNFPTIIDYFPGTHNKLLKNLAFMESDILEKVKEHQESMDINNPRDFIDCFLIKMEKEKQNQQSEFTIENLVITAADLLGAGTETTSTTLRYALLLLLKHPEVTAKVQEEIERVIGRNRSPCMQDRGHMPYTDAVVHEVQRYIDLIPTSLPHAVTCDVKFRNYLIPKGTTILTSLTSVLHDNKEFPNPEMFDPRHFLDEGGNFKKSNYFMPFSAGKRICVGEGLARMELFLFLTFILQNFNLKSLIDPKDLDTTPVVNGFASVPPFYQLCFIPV

Chain of Cytochrome P450 2D6 (P10635 whole entry): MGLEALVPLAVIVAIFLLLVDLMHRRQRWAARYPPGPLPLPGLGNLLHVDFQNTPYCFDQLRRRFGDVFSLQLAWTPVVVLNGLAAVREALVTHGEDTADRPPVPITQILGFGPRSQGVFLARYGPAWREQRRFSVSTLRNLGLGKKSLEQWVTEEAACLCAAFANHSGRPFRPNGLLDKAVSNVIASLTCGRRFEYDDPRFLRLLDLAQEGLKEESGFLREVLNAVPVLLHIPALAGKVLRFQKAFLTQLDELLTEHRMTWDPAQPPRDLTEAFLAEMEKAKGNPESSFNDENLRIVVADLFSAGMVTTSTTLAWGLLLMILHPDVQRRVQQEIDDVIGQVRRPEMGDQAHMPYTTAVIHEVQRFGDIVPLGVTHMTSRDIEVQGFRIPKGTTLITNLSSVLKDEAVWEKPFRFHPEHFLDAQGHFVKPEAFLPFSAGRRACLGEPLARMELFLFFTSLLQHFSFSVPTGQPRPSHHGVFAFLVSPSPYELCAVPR
Chain of Voltage-gated inwardly rectifying potassium channel KCNH2 (Q12809 whole entry): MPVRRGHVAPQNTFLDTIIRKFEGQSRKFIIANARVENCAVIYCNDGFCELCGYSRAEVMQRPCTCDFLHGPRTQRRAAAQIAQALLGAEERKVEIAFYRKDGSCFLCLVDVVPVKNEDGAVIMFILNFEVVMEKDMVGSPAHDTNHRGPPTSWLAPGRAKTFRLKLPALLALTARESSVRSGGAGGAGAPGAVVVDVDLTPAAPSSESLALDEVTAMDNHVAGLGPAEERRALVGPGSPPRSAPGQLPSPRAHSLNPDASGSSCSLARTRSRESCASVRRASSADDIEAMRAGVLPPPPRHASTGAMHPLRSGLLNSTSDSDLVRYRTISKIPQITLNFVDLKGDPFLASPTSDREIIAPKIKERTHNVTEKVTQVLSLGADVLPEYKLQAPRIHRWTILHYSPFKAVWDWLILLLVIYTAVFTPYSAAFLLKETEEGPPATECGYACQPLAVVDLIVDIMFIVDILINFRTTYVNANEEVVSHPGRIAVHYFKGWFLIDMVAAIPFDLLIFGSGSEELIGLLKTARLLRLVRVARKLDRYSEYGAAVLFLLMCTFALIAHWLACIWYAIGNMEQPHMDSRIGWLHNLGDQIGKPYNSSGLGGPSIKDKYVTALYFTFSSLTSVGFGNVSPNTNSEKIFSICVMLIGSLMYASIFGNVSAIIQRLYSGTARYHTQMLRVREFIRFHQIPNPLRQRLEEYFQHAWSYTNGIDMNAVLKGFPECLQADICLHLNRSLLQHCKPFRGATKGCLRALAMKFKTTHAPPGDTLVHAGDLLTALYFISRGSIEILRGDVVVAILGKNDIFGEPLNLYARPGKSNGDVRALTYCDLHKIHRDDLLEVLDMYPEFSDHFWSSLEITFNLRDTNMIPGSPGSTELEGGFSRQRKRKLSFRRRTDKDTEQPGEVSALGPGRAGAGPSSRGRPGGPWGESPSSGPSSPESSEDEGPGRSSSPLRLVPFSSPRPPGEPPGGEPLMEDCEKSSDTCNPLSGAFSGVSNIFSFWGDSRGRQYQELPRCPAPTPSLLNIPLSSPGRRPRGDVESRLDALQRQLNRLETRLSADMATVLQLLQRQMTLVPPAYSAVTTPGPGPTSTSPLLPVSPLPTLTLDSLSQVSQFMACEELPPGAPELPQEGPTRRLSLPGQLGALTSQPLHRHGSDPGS
Chain of Cytochrome P450 2C9 (P11712 whole entry): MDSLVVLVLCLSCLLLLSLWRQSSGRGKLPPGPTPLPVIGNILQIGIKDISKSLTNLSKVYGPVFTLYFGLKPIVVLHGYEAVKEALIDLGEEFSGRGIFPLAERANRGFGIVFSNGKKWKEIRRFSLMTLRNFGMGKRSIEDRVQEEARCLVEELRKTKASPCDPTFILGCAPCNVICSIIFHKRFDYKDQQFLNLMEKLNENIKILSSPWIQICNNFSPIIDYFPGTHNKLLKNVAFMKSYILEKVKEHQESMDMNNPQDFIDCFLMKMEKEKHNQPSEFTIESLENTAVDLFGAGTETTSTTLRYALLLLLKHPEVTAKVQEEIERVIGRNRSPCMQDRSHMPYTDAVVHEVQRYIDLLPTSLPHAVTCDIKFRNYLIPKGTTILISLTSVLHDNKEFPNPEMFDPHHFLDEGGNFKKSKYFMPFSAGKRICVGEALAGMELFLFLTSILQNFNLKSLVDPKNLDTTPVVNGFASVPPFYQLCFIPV
Chain of Cytochrome P450 3A4 (P08684 whole entry): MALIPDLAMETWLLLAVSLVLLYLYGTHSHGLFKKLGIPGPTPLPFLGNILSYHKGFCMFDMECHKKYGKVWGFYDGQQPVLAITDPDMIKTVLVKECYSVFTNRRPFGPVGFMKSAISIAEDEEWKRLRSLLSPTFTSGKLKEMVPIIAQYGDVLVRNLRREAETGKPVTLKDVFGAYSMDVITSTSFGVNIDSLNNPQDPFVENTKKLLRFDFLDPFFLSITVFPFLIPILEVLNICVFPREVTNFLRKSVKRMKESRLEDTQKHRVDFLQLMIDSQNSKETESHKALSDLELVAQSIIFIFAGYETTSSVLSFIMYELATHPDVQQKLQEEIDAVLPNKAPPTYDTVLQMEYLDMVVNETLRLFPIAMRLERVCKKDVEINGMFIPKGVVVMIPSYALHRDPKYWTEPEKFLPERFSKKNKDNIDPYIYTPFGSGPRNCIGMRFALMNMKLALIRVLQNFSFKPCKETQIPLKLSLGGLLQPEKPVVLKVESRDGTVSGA

**Q.** Which results are given for `CNCC(=O)N[C@@H]1[C@H](O)[C@H](O[C@H]2/C=C/C=C/C=C/C=C/C=C/C=C/C=C/[C@H](C)[C@@H](O)[C@@H](C)[C@H](C)OC(=O)C[C@H](O)C[C@H](O)CC[C@@H](O)[C@H](O)C[C@H](O)C[C@]3(O)C[C@H](O)[C@@H](C(=O)NCCN)[C@H](C2)O3)O[C@H](C)[C@H]1O`?
**A.** MIC (Pichia kudriavzevii [1]): 0.25 µg/mL (≈ 0.241 µM); solubility [2]: 0.0585 mg/mL (≈ 56.4 µM); MIC (Candida parapsilosis [3]): 0.03 µg/mL (≈ 0.0289 µM); Activity [4]: Non-Toxic; Ratio (Candida albicans [5]): 60; MIC (Cryptococcus neoformans [6]): < 0.008 µg/mL; Ratio (Nakaseomyces glabratus): 66; AUC(0-inf) [7]: 31800 ng·h/mL; Ratio (Pichia kudriavzevii [8]): 8; ED50 (Candida albicans [9]): 0.21 mg/kg; MRT inf [10]: 29.5 h; MIC (Candida albicans [11]): < 0.008 µg/mL; MIC (Candida tropicalis [12]): 0.03 µg/mL (≈ 0.0289 µM); MTD at 336 h [13]: 7.5 mg/kg; Activity [14]: Toxic; Activity [15]: Toxic; selectivity ratio [16]: 35.7; Ratio (Candida tropicalis [17]): 33; Vd [18]: 0.917 L/kg; HC50 at 1 h [19]: 105 µM; Ratio (Cryptococcus neoformans [20]): 125; clearance [21]: 0.53 mL/min/kg; Ratio (Candida parapsilosis [22]): 16; AUC(0-t) at 24 h [23]: 17600 ng·h/mL; half-life [24]: 20.5 h; MIC (Pichia kudriavzevii [25]): 0.125 µg/mL (≈ 0.121 µM); Activity [26]: Non-Toxic

**Q.** Which solubility [2] does the source give for `CNCC(=O)N[C@@H]1[C@H](O)[C@H](O[C@H]2/C=C/C=C/C=C/C=C/C=C/C=C/C=C/[C@H](C)[C@@H](O)[C@@H](C)[C@H](C)OC(=O)C[C@H](O)C[C@H](O)CC[C@@H](O)[C@H](O)C[C@H](O)C[C@]3(O)C[C@H](O)[C@@H](C(=O)NCCN)[C@H](C2)O3)O[C@H](C)[C@H]1O.NC(CCC(=O)O)C(=O)O` here?
**A.** 106 mg/mL

**Q.** What about the IC50 (Cytochrome P450 1A2) of the same molecule?
**A.** > 25 µM

**Q.** And the IC50 (Cytochrome P450 2C9)?
**A.** > 50 µM

**Q.** And the IC50 (Cytochrome P450 3A4)?
**A.** 36.9 µM

**Q.** And the IC50 (Cytochrome P450 2D6)?
**A.** > 50 µM

**Q.** What about the Activity [27] of the same molecule?
**A.** Active

**Q.** And the IC50 [28]?
**A.** > 13.3 µM

**Q.** What about the IC50 (Cytochrome P450 2C19) of the same molecule?
**A.** > 50 µM
